Measured values from the supplement of paper PMC8253809.

Legend:
[1] = test system: iAstro (astrocyte control); assay: EC50 (inflection of fitted growth-inhibition curve) (log10 M)
How it was run: (§1)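 Viability readout was CellTiter-Glo luminescence, log2-transformed, normalised per plate to % activity between negative (solvent) and positive control wells, then pooled. This followed a 7-day exposure (3 days for iAstro) at 37 °C, 5% CO2 to a 10-point threefold dilution series (mean top concentration 35 μM), pin-tool delivered in triplicate to patient-derived pHGG/DIPG cell lines and astrocyte controls on 1% Geltrex-coated 384-well plates. Three- and four-parameter log-logistic fits were compared, and the one with the lowest AICc supplied EC50 and maximal response (yFin).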

[2] = test system: DIPGX29 (H3.3 K27M diffuse intrinsic pontine glioma line); assay: as above
How it was run: as §1

[3] = test system: DIPGX9 (diffuse intrinsic pontine glioma line); assay: as above
How it was run: as §1

[4] = test system: SUDIPGXIX (diffuse intrinsic pontine glioma line); assay: as above
How it was run: as §1

[5] = test system: HGGX39 (paediatric high-grade glioma line); assay: as above
How it was run: as §1

[6] = test system: SUDIPGXVII (diffuse intrinsic pontine glioma line); assay: as above
How it was run: as §1

[7] = test system: HABS (astrocyte control); assay: as above
How it was run: as §1

[8] = test system: DIPGX7 (H3.3 K27M diffuse intrinsic pontine glioma line); assay: as above
How it was run: as §1

[9] = test system: SUDIPGVI (diffuse intrinsic pontine glioma line); assay: as above
How it was run: as §1

[10] = test system: HGGX6 (H3.3 G34R paediatric high-grade glioma line); assay: as above
How it was run: as §1

[11] = test system: SUDIPGXXI (diffuse intrinsic pontine glioma line); assay: as above
How it was run: as §1

[12] = test system: HGGX42 (H3.3 G34R paediatric high-grade glioma line); assay: as above
How it was run: as §1

[13] = test system: HGGX2 (paediatric high-grade glioma line); assay: as above
How it was run: as §1

[14] = test system: SUDIPGIV (diffuse intrinsic pontine glioma line); assay: as above
How it was run: as §1

[15] = test system: iAstro; assay: maximal growth inhibition (yFin) relative to DMSO / staurosporine; higher = more efficacious
How it was run: as §1

[16] = test system: HABS; assay: as above
How it was run: as §1

[17] = test system: DIPGX7; assay: as above
How it was run: as §1

[18] = test system: HABS; assay: growth inhibition relative to DMSO (0) and positive control (1) (fraction); higher = more growth inhibition
Protocol: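 Paxalisib (GDC0084) x mirdametinib (PD0325901) dose matrix on pHGG cell lines and astrocyte controls, 7 days, adherent 384-well. CellTiter-Glo RLU was normalised (no log2) to fractional activity between DMSO (0) and the positive control (1). Each combination was tested in two plate orientations.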

[19] = test system: DIPGX37 (H3.3 K27M diffuse intrinsic pontine glioma line); assay: EC50 (inflection of fitted growth-inhibition curve) (log10 M)
How it was run: as §1

Cc1noc2c1-c1ccccc1C(c1ccc(Cl)cc1)=N[C@H]2CC(N)=O [CPI-0610]
Conditions	EC50 (log10 M)	maximal growth inhibition [%]
[1]	-5.98	–
[2]	-5.05	–
[3]	-5.71	–
[4]	-5.17	–
[5]	-4.96	–
[6]	-5.39	–
[7]	-5.3	–
[8]	-4.88	–
[9]	-5.11	–
[10]	-5.43	–
[11]	-6.13	–
[12]	-5.3	–
[13]	-5.42	–
[14]	-5.51	–
[15]	–	39
[16]	–	72.8
[17]	–	116

CC1(C)OCCn2c1nc1c(N3CCOCC3)nc(-c3cnc(N)nc3)nc12 [GDC0084] + O=C(NOC[C@H](O)CO)c1ccc(F)c(F)c1Nc1ccc(I)cc1F [PD0325901]
growth inhibition, [18]
Conditions	compound 1 concentration 0.009766 µM	compound 1 concentration 0.01953 µM	compound 1 concentration 0.03906 µM	compound 1 concentration 0.07812 µM	compound 1 concentration 0.15625 µM	compound 1 concentration 0.3125 µM	compound 1 concentration 0.625 µM	compound 1 concentration 1.25 µM	compound 1 concentration 5 µM	compound 1 concentration 20 µM
compound 2 concentration 0.03906 µM	-0.37	-0.333	-0.284	-0.211	-0.192	-0.0322	0.16	0.363	0.773	0.974
compound 2 concentration 0.07812 µM	-0.231	-0.228	-0.183	-0.184	-0.0583	0.0322	0.187	0.365	0.734	0.954
compound 2 concentration 0.15625 µM	-0.225	-0.157	-0.11	-0.0914	0.000284	0.0786	0.237	0.371	0.734	0.943
compound 2 concentration 0.3125 µM	-0.0761	-0.0499	-0.0388	0.00861	0.0797	0.184	0.292	0.419	0.718	0.923
compound 2 concentration 0.625 µM	0.163	0.146	0.187	0.252	0.293	0.374	0.474	0.574	0.798	0.946
compound 2 concentration 1.25 µM	0.291	0.301	0.34	0.347	0.406	0.457	0.538	0.624	0.807	0.966
compound 2 concentration 5 µM	0.677	0.695	0.698	0.722	0.793	0.854	0.895	0.922	0.982	0.999
compound 2 concentration 20 µM	0.792	0.82	0.846	0.876	0.911	0.94	0.968	0.986	0.999	1

C=CCn1c(=O)c2cnc(Nc3ccc(N4CCN(C)CC4)cc3)nc2n1-c1cccc(C(C)(C)O)n1 [MK-1775]
Conditions	EC50 (log10 M)	maximal growth inhibition [%]
[1]	-6.04	–
[2]	-6.91	–
[3]	-5.33	–
[4]	-6.03	–
[5]	-5.05	–
[6]	-5.54	–
[7]	-5.41	–
[8]	-5.75	–
[10]	-5.72	–
[11]	-6.07	–
[12]	-5.45	–
[13]	-6.67	–
[14]	-5.92	–
[15]	–	36.6
[16]	–	26.7
[17]	–	25
[19]	-6.2	–
